From patent US11981658B2, “Substituted aminopyridine compounds as EGFR inhibitors” (YUHAN CORPORATION, priority 2021, dated 2024)
Where two headings read alike, the source gives them in different places.

Legend:
[1] = target: EGFR Del19/T790M/C797S (Homo sapiens, UniProt P00533, C797S/DEL746-750/T790M); experiment: Biochemical EGFR kinase inhibition assay (Lance Ultra TR-FRET), triple mutant del19/T790M/C797S
Summary of the method: (§1)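 In this biochemical assay, phosphorylation after a one-hour room-temperature reaction was detected with europium-labelled anti-phosphopeptide antibody at 2 nM final concentration.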

[2] = target: EGFR L858R/T790M/C797S (Homo sapiens, UniProt P00533, C797S/L858R/T790M); experiment: Biochemical EGFR kinase inhibition assay (Lance Ultra TR-FRET), triple mutant L858R/T790M/C797S
EGFR L858R/T790M/C797S, sequence (P00533 25-1210 T790M/C797S/L858R): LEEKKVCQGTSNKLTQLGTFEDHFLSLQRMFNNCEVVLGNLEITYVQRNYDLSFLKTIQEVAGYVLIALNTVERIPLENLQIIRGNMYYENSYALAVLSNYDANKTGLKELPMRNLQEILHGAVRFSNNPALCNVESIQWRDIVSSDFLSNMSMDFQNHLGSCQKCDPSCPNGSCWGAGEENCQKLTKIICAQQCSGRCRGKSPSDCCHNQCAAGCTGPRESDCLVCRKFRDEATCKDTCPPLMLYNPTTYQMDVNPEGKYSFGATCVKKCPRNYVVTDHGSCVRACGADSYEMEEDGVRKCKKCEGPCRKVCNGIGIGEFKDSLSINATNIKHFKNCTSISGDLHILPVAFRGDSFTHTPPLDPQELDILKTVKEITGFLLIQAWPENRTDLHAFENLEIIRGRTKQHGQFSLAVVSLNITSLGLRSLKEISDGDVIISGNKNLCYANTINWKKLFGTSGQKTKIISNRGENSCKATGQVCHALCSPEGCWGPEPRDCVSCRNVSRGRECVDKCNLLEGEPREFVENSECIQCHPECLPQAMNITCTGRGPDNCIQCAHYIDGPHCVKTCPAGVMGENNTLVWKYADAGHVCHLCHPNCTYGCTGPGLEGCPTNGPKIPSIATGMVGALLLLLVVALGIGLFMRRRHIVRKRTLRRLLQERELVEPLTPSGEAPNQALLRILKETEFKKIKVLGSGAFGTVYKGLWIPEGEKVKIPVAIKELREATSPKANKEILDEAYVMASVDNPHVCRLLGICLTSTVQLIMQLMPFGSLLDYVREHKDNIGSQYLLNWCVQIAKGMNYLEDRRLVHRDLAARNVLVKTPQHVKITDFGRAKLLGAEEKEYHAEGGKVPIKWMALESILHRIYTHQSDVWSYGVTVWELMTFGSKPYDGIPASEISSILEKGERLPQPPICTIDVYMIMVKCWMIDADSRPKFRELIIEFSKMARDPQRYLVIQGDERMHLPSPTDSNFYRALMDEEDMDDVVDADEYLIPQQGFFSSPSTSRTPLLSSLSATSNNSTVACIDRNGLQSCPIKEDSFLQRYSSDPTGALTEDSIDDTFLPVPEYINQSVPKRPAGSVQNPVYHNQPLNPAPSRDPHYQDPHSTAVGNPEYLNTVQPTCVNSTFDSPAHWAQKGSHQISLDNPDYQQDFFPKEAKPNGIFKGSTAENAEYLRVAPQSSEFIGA
Summary of the method: as §1

[3] = target: EGFR Del19/C797S (Homo sapiens, UniProt P00533, C797S/DEL746-750); experiment: Biochemical EGFR kinase inhibition assay (Lance Ultra TR-FRET), double mutant del19/C797S
EGFR Del19/C797S, sequence (P00533 with tags, fused parts or gaps DEL746-750/C797S): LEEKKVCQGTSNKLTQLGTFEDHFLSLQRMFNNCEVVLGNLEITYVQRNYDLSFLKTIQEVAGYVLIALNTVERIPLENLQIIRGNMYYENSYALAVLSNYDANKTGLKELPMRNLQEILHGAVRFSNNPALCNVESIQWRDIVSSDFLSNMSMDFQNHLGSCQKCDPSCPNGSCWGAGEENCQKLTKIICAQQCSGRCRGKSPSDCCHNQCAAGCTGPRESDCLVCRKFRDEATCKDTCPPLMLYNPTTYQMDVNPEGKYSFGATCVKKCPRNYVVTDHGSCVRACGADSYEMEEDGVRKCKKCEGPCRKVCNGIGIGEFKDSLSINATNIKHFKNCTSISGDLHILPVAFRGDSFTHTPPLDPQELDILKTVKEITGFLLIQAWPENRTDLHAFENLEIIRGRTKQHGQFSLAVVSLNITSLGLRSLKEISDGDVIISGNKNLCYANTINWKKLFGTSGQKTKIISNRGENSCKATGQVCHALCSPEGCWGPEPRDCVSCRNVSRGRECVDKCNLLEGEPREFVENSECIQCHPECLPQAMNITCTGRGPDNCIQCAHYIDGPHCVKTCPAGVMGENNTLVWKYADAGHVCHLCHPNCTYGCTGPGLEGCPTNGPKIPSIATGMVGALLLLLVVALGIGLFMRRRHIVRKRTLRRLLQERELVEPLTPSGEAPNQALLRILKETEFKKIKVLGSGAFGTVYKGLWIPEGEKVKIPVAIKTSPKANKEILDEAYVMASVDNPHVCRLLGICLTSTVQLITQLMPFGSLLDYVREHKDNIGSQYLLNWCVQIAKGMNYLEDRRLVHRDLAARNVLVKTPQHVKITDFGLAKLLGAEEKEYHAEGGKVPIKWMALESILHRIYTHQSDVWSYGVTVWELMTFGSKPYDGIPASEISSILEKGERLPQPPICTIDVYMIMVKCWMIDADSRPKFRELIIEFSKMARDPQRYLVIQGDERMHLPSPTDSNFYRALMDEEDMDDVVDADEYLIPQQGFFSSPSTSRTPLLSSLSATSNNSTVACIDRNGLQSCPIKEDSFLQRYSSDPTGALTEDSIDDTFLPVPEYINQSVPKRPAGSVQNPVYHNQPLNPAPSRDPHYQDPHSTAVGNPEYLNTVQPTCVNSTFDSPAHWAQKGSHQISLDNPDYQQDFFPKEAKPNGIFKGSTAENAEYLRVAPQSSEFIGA
Summary of the method: as §1

[4] = target: EGFR L858R/C797S (Homo sapiens, UniProt P00533, C797S/L858R); experiment: Biochemical EGFR kinase inhibition assay (Lance Ultra TR-FRET), double mutant L858R/C797S
EGFR L858R/C797S, sequence (P00533 25-1210 C797S/L858R): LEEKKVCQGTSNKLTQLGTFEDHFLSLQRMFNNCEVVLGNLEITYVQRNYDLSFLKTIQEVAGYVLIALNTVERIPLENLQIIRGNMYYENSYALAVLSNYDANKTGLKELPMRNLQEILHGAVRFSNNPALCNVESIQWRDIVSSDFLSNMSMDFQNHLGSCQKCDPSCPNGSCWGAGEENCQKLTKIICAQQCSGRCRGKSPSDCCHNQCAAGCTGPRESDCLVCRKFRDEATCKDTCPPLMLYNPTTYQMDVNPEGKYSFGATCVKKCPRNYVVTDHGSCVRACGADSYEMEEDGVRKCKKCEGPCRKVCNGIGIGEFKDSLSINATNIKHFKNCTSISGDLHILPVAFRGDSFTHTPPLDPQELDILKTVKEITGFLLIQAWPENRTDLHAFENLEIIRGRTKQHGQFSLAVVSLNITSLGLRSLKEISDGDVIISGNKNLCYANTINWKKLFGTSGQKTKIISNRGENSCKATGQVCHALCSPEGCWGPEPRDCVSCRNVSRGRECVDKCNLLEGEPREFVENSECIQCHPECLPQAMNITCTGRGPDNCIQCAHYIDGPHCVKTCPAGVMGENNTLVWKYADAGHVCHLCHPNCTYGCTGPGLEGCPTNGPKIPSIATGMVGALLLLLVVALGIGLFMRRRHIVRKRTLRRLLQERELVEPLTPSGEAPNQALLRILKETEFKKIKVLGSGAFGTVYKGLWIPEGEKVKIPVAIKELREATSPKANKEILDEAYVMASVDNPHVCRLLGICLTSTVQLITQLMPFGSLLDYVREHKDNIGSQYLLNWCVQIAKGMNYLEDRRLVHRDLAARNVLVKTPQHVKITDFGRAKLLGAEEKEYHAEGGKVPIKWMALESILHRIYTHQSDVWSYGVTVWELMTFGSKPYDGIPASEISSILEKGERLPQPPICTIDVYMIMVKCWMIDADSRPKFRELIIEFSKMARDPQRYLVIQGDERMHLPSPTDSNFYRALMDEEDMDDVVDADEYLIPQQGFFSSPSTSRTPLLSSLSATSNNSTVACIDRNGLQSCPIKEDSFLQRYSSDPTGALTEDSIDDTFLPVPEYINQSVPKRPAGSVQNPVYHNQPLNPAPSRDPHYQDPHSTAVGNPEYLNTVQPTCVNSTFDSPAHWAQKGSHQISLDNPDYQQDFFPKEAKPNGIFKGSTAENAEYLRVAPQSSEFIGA
Summary of the method: as §1

[5] = target: EGFR wildtype (WT) (Homo sapiens, UniProt P00533); experiment: Biochemical EGFR kinase inhibition assay (Lance Ultra TR-FRET), wildtype
Summary of the method: as §1

[6] = IC50 Del19/T790M/C797S (nM), 100 μM ATP
[7] = Km ATP, read-out: IC50 Del19/T790M/C797S (nM) Km ATP
[8] = IC50 L858R/T790M/C797S (nM), 100 μM ATP
[9] = Km ATP, read-out: IC50 L858R/T790M/C797S (nM) Km ATP
[10] = IC50 Del19/C797S (nM), 100 μM ATP
[11] = Km ATP, read-out: IC50 Del19/C797S (nM) Km ATP
[12] = IC50 L858R/C797S (nM), 100 μM ATP
[13] = Km ATP, read-out: IC50 L858R/C797S (nM) Km ATP
[14] = Km ATP, read-out: IC50 WT (nM) Km ATP
[15] = ATP at Km, read-out: IC50 Del19/T790M/C797S (nM), Km ATP
[16] = ATP at Km, read-out: IC50 L858R/T790M/C797S (nM), Km ATP
[17] = ATP at Km, read-out: IC50 Del19/C797S (nM), Km ATP
[18] = ATP at Km, read-out: IC50 L858R/C797S (nM), Km ATP
[19] = ATP at Km, read-out: IC50 WT (nM), Km ATP

EGFR Del19/T790M/C797S, sequence (P00533 with tags, fused parts or gaps DEL746-750/T790M/C797S): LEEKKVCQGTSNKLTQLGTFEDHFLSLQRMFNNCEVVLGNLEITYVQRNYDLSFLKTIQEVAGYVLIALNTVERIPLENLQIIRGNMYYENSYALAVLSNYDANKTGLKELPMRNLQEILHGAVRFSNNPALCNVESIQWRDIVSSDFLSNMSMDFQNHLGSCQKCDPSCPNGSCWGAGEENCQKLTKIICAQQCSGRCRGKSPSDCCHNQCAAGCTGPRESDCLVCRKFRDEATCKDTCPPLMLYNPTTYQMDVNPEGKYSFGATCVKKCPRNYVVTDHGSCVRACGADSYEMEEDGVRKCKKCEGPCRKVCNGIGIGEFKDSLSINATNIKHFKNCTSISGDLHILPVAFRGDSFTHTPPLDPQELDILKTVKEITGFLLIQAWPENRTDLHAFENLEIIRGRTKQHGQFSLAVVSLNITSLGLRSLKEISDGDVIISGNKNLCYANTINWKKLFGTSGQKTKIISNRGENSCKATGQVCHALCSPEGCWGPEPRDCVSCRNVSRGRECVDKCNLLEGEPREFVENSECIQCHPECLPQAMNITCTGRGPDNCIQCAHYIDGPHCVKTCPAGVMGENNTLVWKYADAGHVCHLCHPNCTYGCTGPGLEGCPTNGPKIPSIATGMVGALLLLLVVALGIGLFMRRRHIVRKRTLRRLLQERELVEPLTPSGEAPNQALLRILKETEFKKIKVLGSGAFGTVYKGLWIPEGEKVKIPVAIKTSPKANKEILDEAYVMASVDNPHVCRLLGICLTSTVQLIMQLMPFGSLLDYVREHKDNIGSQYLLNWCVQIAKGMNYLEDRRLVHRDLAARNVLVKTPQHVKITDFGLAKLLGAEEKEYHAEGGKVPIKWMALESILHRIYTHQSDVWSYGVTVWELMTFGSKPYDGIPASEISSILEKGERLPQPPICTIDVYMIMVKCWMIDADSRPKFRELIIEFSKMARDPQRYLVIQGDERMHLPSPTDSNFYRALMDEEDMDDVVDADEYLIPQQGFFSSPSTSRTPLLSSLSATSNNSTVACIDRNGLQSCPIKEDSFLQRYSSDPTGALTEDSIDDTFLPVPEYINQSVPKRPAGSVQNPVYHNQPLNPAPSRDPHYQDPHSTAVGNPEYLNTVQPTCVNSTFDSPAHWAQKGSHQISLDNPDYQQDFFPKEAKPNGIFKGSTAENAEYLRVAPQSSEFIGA

CC1(CO)CCN(c2cc(Nc3ccnc(-c4cnn(S(=O)(=O)C5CC5)c4)n3)ncc2C#Cc2cnn3c2CNCC3)CC1 [Example 149, (1-(2-((2-(1-(Cyclopropylsulfonyl)-1H-pyrazol-4-yl)pyrimidin-4-yl)amino)-5-((4,5,6,7-tetrahydropyrazolo[1,5-a]pyrazin-3-yl)ethynyl)pyridin-4-yl)-4-methylpiperidin-4-yl)methanol]
IC50 [1, 6]: 0.4 nM
IC50 [1, 7]: 0.2 nM
IC50 [2, 8]: 0.2 nM
IC50 [2, 9]: 0.1 nM
IC50 [3, 10]: 0.4 nM
IC50 [3, 11]: 0.2 nM
IC50 [4, 12]: 3.4 nM
IC50 [4, 13]: 0.3 nM
IC50 ([5]; IC50 WT (nM), 100 μM ATP): 853 nM
IC50 [5, 14]: 1.6 nM

O=S(=O)(C1CC1)n1cc(-c2nccc(Nc3cc(N[C@H]4CC[C@@H](O)CC4)c(C#Cc4cccc(NCCN5CCOCC5)c4)cn3)n2)cn1 [Example 173, (1s,4s)-4-((2-((2-(1-(Cyclopropylsulfonyl)-1H-pyrazol-4-yl)pyrimidin-4-yl)amino)-5-((3-((2-morpholinoethyl)amino)phenyl)ethynyl)pyridin-4-yl)amino)cyclohexan-1-ol]
IC50 [1, 15]: 2.9 nM
IC50 ([1]; read-out: IC50 Del19/T790M/C797S (nM), 100 μM ATP): 9.9 nM
IC50 [2, 16]: 1.3 nM
IC50 ([2]; read-out: IC50 L858R/T790M/C797S (nM), 100 μM ATP): 10.5 nM
IC50 [3, 17]: 6.2 nM
IC50 ([3]; read-out: IC50 Del19/C797S (nM), 100 μM ATP): 8.5 nM
IC50 [4, 18]: 7.8 nM
IC50 ([4]; read-out: IC50 L858R/C797S (nM), 100 μM ATP): 100 nM
IC50 [5, 19]: 22.9 nM
IC50 ([5]; read-out: IC50 WT (nM), 100 μM ATP): > 10000 nM

COC1(C)CCN(c2cc(Nc3ccnc(-c4cnn(S(=O)(=O)C5CC5)c4)n3)ncc2C#Cc2cccnc2)CC1 [Example 281, 2-(1-(Cyclopropylsulfonyl)-1H-pyrazol-4-yl)-N-(4-(4-methoxy-4-methylpiperidin-1-yl)-5-(pyridin-3-ylethynyl)pyridin-2-yl)pyrimidin-4-amine]
IC50 [1, 15]: 10.2 nM
IC50 [1, 6]: 82.1 nM
IC50 [2, 8]: 22 nM
IC50 [3, 17]: 17 nM
IC50 [3, 10]: 88.5 nM
IC50 [4, 18]: 6.3 nM
IC50 [4, 12]: 287 nM
IC50 [5, 19]: 192 nM
IC50 ([5]; IC50 WT (nM), 100 μM ATP): > 10000 nM

CC1(C#Cc2cnc(Nc3ccnc(-c4cnn(S(=O)(=O)C5CC5)c4)n3)cc2N2CCC(C)(CO)CC2)CCOCC1 [Example 183, (1-(2-((2-(1-(Cyclopropylsulfonyl)-1H-pyrazol-4-yl)pyrimidin-4-yl)amino)-5-((4-methyltetrahydro-2H-pyran-4-yl)ethynyl)pyridin-4-yl)-4-methylpiperidin-4-yl)methanol]
IC50 [1, 15]: 2 nM
IC50 [1, 6]: 1.9 nM
IC50 [2, 16]: 0.9 nM
IC50 [2, 8]: 4.1 nM
IC50 [3, 17]: 11.7 nM
IC50 [3, 10]: 43.9 nM
IC50 [4, 18]: 26.9 nM
IC50 [4, 12]: 400 nM
IC50 [5, 19]: 146 nM
IC50 ([5]; IC50 WT (nM), 100 μM ATP): > 10000 nM

Cn1cc(C#Cc2cnc(Nc3ccnc(-c4cnn(S(=O)(=O)C5CC5)c4)n3)cc2N[C@H]2CCC[C@@H](O)C2)cn1 [Example 75, (1R,3S)-3-((2-((2-(1-(Cyclopropylsulfonyl)-1H-pyrazol-4-yl)pyrimidin-4-yl)amino)-5-((1-methyl-1H-pyrazol-4-yl)ethynyl)pyridin-4-yl)amino)cyclohexan-1-ol]
IC50 [1, 6]: 1.6 nM
IC50 [1, 7]: 1.8 nM
IC50 [2, 8]: 1.8 nM
IC50 [2, 9]: 0.8 nM
IC50 [3, 10]: 5.7 nM
IC50 [3, 11]: 3.8 nM
IC50 [4, 12]: 104 nM
IC50 [4, 13]: 2.6 nM
IC50 ([5]; IC50 WT (nM), 100 μM ATP): > 10000 nM
IC50 [5, 14]: 45.6 nM

CCc1cnc(C#Cc2cnc(Nc3ccnc(-c4cnn(S(=O)(=O)C5CC5)c4)n3)cc2N[C@@H]2CCC[C@H](O)C2)s1 [Example 168, (1S,3R)-3-((2-((2-(1-(Cyclopropylsulfonyl)-1H-pyrazol-4-yl)pyrimidin-4-yl)amino)-5-((5-ethylthiazol-2-yl)ethynyl)pyridin-4-yl)amino)cyclohexan-1-ol]
IC50 [1, 15]: 11 nM
IC50 [1, 6]: 11.8 nM
IC50 [2, 16]: 9.1 nM
IC50 [2, 8]: 71.2 nM
IC50 [3, 17]: 67.9 nM
IC50 [3, 10]: 391 nM
IC50 [4, 18]: 784 nM
IC50 [4, 12]: 8370 nM
IC50 [5, 19]: 6250 nM
IC50 ([5]; IC50 WT (nM), 100 μM ATP): > 10000 nM

Cc1cnc(C#Cc2cnc(Nc3ccnc(-c4cnn(S(=O)(=O)C5CC5)c4)n3)cc2N[C@@H]2CCC[C@H](O)C2)cn1 [Example 170, (1 S,3R)-3-((2-((2-(1-(Cyclopropylsulfonyl)-1H-pyrazol-4-yl)pyrimidin-4-yl)amino)-5-((5-methylpyrazin-2-yl)ethynyl)pyridin-4-yl)amino)cyclohexan-1-ol]
IC50 [1, 15]: 0.9 nM
IC50 [1, 6]: 1 nM
IC50 [2, 16]: 0.6 nM
IC50 [2, 8]: 5.7 nM
IC50 [3, 17]: 4.4 nM
IC50 [3, 10]: 19.9 nM
IC50 [4, 18]: 23.8 nM
IC50 [4, 12]: 316 nM
IC50 [5, 19]: 286 nM
IC50 ([5]; IC50 WT (nM), 100 μM ATP): > 10000 nM

COC1CCN(c2cc(Nc3ccnc(-c4cnn(S(=O)(=O)C5CC5)c4)n3)ncc2C#Cc2cnn(C3CCOCC3)c2)CC1 [Example 98, 2-(1-(Cyclopropylsulfonyl)-1H-pyrazol-4-yl)-N-(4-(4-methoxypiperidin-1-yl)-5-((1-(tetrahydro-2H-pyran-4-yl)-1H-pyrazol-4-yl)ethynyl)pyridin-2-yl)pyrimidin-4-amine]
IC50 [1, 6]: 2.1 nM
IC50 [1, 7]: 2.3 nM
IC50 [2, 8]: 9.9 nM
IC50 [2, 9]: 2.3 nM
IC50 [3, 10]: 21.1 nM
IC50 [3, 11]: 15.5 nM
IC50 [4, 12]: 101 nM
IC50 [4, 13]: 7.5 nM
IC50 ([5]; IC50 WT (nM), 100 μM ATP): > 10000 nM
IC50 [5, 14]: 72 nM

O=S(=O)(C1CC1)n1cc(-c2nccc(Nc3cc(N4CCC(F)(CO)CC4)c(C#Cc4cnn(CC(F)(F)F)c4)cn3)n2)cn1 [Example 342, (1-(2-((2-(1-(Cyclopropylsulfonyl)-1H-pyrazol-4-yl)pyrimidin-4-yl)amino)-5-((1-(2,2,2-trifluoroethyl)-1H-pyrazol-4-yl)ethynyl)pyridin-4-yl)-4-fluoropiperidin-4-yl)methanol]
IC50 [1, 6]: 0.9 nM
IC50 ([1]; Km ATP, read-out: IC50 Del19/T790M/C797S (nM), Km ATP): 0.8 nM
IC50 [2, 8]: 0.8 nM
IC50 ([2]; Km ATP, read-out: IC50 L858R/T790M/C797S (nM), Km ATP): 0.2 nM
IC50 [3, 10]: 3.6 nM
IC50 ([3]; Km ATP, read-out: IC50 Del19/C797S (nM), Km ATP): 2.3 nM
IC50 [4, 12]: 11.8 nM
IC50 ([4]; Km ATP, read-out: IC50 L858R/C797S (nM), Km ATP): 4.5 nM
IC50 ([5]; IC50 WT (nM), 100 μM ATP): > 10000 nM
IC50 ([5]; Km ATP, read-out: IC50 WT (nM), Km ATP): 11 nM

CN(C)C[C@H]1CC[C@@H](Nc2cc(Nc3ccnc(-c4cnn(S(=O)(=O)C5CC5)c4)n3)ncc2C#Cc2cnn(C(F)F)c2)CC1 [Example 310, N^2-(2-(1-(Cyclopropylsulfonyl)-1H-pyrazol-4-yl)pyrimidin-4-yl)-5-((1-(difluoromethyl)-1H-pyrazol-4-yl)ethynyl)-N^4-((1s,4s)-4-((dimethylamino)methyl)cyclohexyl)pyridine-2,4-diamine]
IC50 [1, 6]: 0.8 nM
IC50 [2, 8]: 1.3 nM
IC50 [3, 17]: 2.9 nM
IC50 [3, 10]: 4.2 nM
IC50 [4, 18]: 1.9 nM
IC50 [4, 12]: 56.3 nM
IC50 [5, 19]: 44 nM
IC50 ([5]; IC50 WT (nM), 100 μM ATP): 8840 nM

CC1(C#Cc2cnc(Nc3ccnc(-c4cnn(S(=O)(=O)C5CC5)c4)n3)cc2N[C@H]2CC[C@@H](O)CC2)COC1 [Example 350, (1s,4s)-4-((2-((2-(1-(Cyclopropylsulfonyl)-1H-pyrazol-4-yl)pyrimidin-4-yl)amino)-5-((3-methyloxetan-3-yl)ethynyl)pyridin-4-yl)amino)cyclohexan-1-ol]
IC50 [1, 6]: 2.8 nM
IC50 [2, 8]: 13.9 nM
IC50 [3, 10]: 81.4 nM
IC50 [4, 12]: 954 nM
IC50 ([5]; IC50 WT (nM), 100 μM ATP): > 10000 nM
